{"source": "patent US10285944B2", "about": "(ALFASIGMA S.P.A., priority 2005, dated 2019)", "key": {"[1]": {"conditions": "depending on the dose and the treatment duration; cited from earlier work"}, "[2]": {"test_system": "patients affected by Crohn's disease", "assay": "Clinical multi-center randomised trial versus placebo in Crohn's disease", "type": "in vivo, human", "conditions": "27 patients", "text": "55 Crohn's disease patients in acute, mild to moderate grade, phase, having CDAI (Crohn Disease Active Index) value between 200 and 300, have been recruited. The primary end point was represented by the percentage of the patients in clinic remission defined as CDAI lower than 150 points at the end of the study. The patients, randomised in two groups: group A, of 27 patients and group B of 28 patients, have been treated for 12 weeks according to the following therapeutic schemes:\nGroup B: placebo, administrated 2 times in a day in a such quantity to correspond to the content of the dose of the active principle."}, "[3]": {"test_system": "Crohn's patients characterized by a protein C reactive value higher than normal", "assay": "Crohn's patients with protein C reactive value higher than normal (subgroup of the trial)", "type": "in vivo, human", "conditions": "subgroup with protein C value higher than normal values; 16 patients treated with rifaximin"}, "[4]": {"conditions": "CDAI lower than 150 after 12 weeks, rifaximin 800 mg 2 times a day (preparation of example 3)"}}, "data": [{"smiles": "Cc1ncc([N+](=O)[O-])n1CCO", "note": "[metronidazole]", "values": [{"measurement": "incidence of side effects", "setting": "[1]", "value": "10-20%"}]}, {"smiles": "CO[C@H]1/C=C/O[C@@]2(C)Oc3c(C)c(O)c4c(O)c(c5c(nc6cc(C)ccn65)c4c3C2=O)NC(=O)/C(C)=C\\C=C\\[C@H](C)[C@H](O)[C@@H](C)[C@@H](O)[C@@H](C)[C@H](OC(C)=O)[C@@H]1C", "note": "[rifaximin]", "values": [{"measurement": "therapeutic failure, percentage of the patients", "setting": "[2]; 12 weeks, rifaximin 800 mg 2 times a day", "value": "(3.4%)"}, {"measurement": "Number of clinical remission", "setting": "[2]; [4]", "value": 14}, {"measurement": "clinical remission, percentage of the patients", "setting": "[2]; [4]", "value": "(51.9%)"}, {"measurement": "Number of clinical remission", "setting": "[3]", "value": 10}, {"measurement": "clinical remission, percentage of the patients", "setting": "[3]", "value": "(62.5%)"}, {"measurement": "therapeutic failure, percentage of the patients", "setting": "[3]", "value": "(0%)"}]}]}
